Measured values taken from US9517227B2, “Dihydropyrazoles” (Merck Patent GmbH, priority 2011, dated 2016).
pEC50: −log10 of the molar value.

Experiments:
FSHR = biological target: T1, FSHR (Homo sapiens, UniProt P23945); test: EC50 of cyclic AMP production in CHO FSHR cells + EC20 FSH (Assay A); format: cell-based; conditions: CHO-FSHR-LUC cells, 0.265 pM FSH (EC20), cAMP HTRF, 1 h
T1 construct: expressed in transfected cells; host or cells: CHO (Cho-FSHR-LUC-1-1-43)
T1 sequence (P23945 18-695): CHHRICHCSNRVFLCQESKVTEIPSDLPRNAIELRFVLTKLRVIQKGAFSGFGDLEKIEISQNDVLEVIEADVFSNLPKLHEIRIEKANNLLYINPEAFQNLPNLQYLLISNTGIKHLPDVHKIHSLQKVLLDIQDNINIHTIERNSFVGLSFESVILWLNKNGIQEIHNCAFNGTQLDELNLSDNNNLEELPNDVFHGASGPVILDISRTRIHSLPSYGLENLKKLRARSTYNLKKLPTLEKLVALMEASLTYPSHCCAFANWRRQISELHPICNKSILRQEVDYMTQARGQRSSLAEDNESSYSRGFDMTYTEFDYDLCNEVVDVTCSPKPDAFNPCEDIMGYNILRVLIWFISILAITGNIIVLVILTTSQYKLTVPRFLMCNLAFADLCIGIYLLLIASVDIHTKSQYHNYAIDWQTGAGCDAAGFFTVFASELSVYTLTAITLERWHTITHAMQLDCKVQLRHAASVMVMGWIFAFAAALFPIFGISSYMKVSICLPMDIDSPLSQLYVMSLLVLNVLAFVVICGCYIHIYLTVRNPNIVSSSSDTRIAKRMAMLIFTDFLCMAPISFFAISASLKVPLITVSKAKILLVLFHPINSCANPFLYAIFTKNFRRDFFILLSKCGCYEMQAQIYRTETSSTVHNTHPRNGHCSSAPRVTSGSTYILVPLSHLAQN
Protocol: EC50 of Cyclic AMP Production in CHO FSHR Cells+EC20 FSH (Assay A)
2500 Cho-FSHR-LUC-1-1-43 cells were plated per well in 5 μl of phenol red free DMEM/F12+1% FBS. Cells were plated in 384 well, solid white low volume plates (Greiner 784075) by Multidrop. Cells were assayed by adding 100 μl of 2×EC20 FSH/IBMX in DMEM/F12+0.1% BSA) by Multidrop to 2 μl of test compound stamped in 384 well plates (compounds are diluted 1:50). The final FSH concentration was 0.265 pM, and the final IBMX concentration was 200 μM. The compound plate map was as follows: Column 1: 2 μl of DMSO; Column 2: 2 μl of DMSO; Columns 3-12 and 13-24: 2 μl of test compound, diluted 1:4 in 100% DMSO, or 2 μl of FSH, diluted 1:4 in DMEM/F12+0.1% BSA. The starting concentration for FSH was 50 nM (final concentration was 0.5 nM). Furthermore, Column 23 contained 2 μl of EC100 FSH reference (100×) (diluted in DMEM/F12+0.1% BSA) at a final concentration of 0.5 nM, and Column 24 contained 2 μl of 1 mM AS707664/2 reference compound 2. 5 μl of compound+EC20 FSH mixture were transferred to cell plates (1:2 dilution into 5 μl of cell media). The plates were incubated at 37° C. for 1 h. 10 μl of mixed HTRF (CisBio #62AM4PEC) reagents were added per well and incubated at room temperature for 1 h. The plates were read on Envision using the cAMP HTRF—low volume 384 well protocol. The readout was the calculated fluorescence ratio (665 nm/620 nm).

[1] = biological target: T2, follicle-stimulating hormone (FSH) receptor (Rattus norvegicus, UniProt P20395); test: Rat granulosa EC50 FSH (Assay B); format: cell-based; conditions: rat granulosa cells; for pEC50: per Yanofsky et al. 2006
T2 construct: endogenous in cells; host or cells: rat granulosa cells
T2 sequence (P20395 18-692): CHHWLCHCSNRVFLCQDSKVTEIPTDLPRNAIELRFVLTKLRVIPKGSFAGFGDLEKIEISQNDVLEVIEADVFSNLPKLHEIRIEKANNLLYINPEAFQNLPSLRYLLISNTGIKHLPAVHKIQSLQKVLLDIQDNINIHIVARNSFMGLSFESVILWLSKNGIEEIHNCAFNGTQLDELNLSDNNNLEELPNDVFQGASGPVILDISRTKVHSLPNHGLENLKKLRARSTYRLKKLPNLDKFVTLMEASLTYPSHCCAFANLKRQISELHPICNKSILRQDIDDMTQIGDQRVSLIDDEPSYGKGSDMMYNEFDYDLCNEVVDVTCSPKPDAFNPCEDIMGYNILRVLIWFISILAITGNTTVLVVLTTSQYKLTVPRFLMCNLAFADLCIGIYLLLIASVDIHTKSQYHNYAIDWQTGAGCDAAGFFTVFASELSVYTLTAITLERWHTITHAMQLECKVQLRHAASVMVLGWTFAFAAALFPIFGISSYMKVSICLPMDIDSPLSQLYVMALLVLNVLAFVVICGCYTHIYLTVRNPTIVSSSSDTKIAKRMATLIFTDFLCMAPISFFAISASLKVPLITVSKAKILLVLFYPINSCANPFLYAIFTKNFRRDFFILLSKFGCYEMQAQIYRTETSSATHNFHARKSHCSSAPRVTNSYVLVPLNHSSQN
Protocol: Rat Granulosa EC50 FSH (Assay B)
The assay was performed pursuant to the teaching of Yanofsky et al. (2006) Allosteric activation of the follicle-stimulating hormone (FSH) receptor by selective, nonpeptide agonists. JBC 281(19): 13226-13233, which is incorporated by reference in the disclosure of the invention.

pEC50 (FSHR)	pEC50 [1]	Assay B: value given in % (rat granulosa) ([1]; meaning of % not stated)	SMILES
4.62	–	–	COc1ccc(C(OC)C(=O)N2CCC(c3ccc(OC)c(OC)c3)=N2)cc1 (stereo not shown) [Compound 275]
4.57	–	–	COc1ccc(C2=NN(C(=O)c3cccc(Cl)c3)C(C)(C)C2)cc1OC [Compound 251, (3-Chloro-phenyl)-[3-(3,4-dimethoxy-phenyl)-5,5-dimethyl-4,5-dihydro-pyrazol-1-yl]-methanone]
4.45	–	–	COc1ccc(C2=NN(C(=O)c3ccc(Cl)cc3)C(C)(C)C2)cc1OC [Compound 247, (4-Chloro-phenyl)-[3-(3,4-dimethoxy-phenyl)-5,5-dimethyl-4,5-dihydro-pyrazol-1-yl]-methanone]
4.51	–	–	COc1ccc(C2=NN(C(=O)c3cccc(F)c3)CC2)c(OC)c1OC [Compound 223]
5.70	–	–	COc1ccc(C2=NN(C(=O)C(OC)c3cccc(C(F)(F)F)c3)CC2)cc1OC (stereo not shown) [Compound 277]
4.62	5.94	–	COc1ccc(C2=NN(C(=O)c3cccc(OC(F)(F)F)c3)C(C)(C)C2)cc1OC [Compound 231, [3-(3,4-Dimethoxy-phenyl)-5,5-dimethyl-4,5-dihydro-pyrazol-1-yl]-(3-trifluoromethoxy-phenyl)-methanone]
5.66	6.89	–	COc1ccc(C2=NN(C(=O)c3ccc(Oc4ccccc4)cc3)C(C)(C)C2)cc1OC [Compound 230, [3-(3,4-Dimethoxy-phenyl)-5,5-dimethyl-4,5-dihydro-pyrazol-1-yl]-(4-phenoxy-phenyl)-methanone]
4.46	6.22	–	COc1ccc(C2=NN(C(=O)c3ccc(F)c(Cl)c3)C(C)(C)C2)cc1OC [Compound 237, (3-Chloro-4-fluoro-phenyl)-[3-(3,4-dimethoxy-phenyl)-5,5-dimethyl-4,5-dihydro-pyrazol-1-yl]-methanone]
4.52	–	–	CCc1ccc(C(=O)N2N=C(c3ccc(OC)c(OC)c3)CC2(C)C)cc1 [Compound 259, [3-(3,4-Dimethoxy-phenyl)-5,5-dimethyl-4,5-dihydro-pyrazol-1-yl]-(4-ethyl-phenyl)-methanone]
4.46	–	–	COc1ccc(C2=NN(C(=O)Cc3cccc(F)c3)C(C)(C)C2)cc1OC [Compound 255, 1-[3-(3,4-Dimethoxy-phenyl)-5,5-dimethyl-4,5-dihydro-pyrazol-1-yl]-2-(3-fluoro-phenyl)-ethanone]
4.57	–	–	COc1ccc(C2=NN(C(=O)C(OC)c3ccc(C)cc3)CC2)cc1OC (stereo not shown) [Compound 282]
–	6.87	–	COc1ccc(C2=NN(C(=O)c3ccccc3F)C(C)(C)C2)cc1OC [Compound 228, [3-(3,4-Dimethoxy-phenyl)-5,5-dimethyl-4,5-dihydro-pyrazol-1-yl]-(2-fluoro-phenyl)-methanone]
4.48	–	–	COc1ccc(C2=NN(C(=O)c3ccc(Br)cc3)C(C)(C)C2)cc1OC [Compound 257, (4-Bromo-phenyl)-[3-(3,4-dimethoxy-phenyl)-5,5-dimethyl-4,5-dihydro-pyrazol-1-yl]-methanone]
4.60	–	–	COc1ccc(C2=NN(C(=O)C(OC)c3ccc(Cl)cc3)CC2)cc1OC (stereo not shown) [Compound 274]
–	–	144.00%	COc1ccc(C2=NN(C(=O)C(OC)c3ccccc3)CC2)cc1OC (stereo not shown) [Compound 291]
–	5.27	–	COc1ccc(C2=NN(C(=O)[C@H](OC)c3ccccc3)CC2)cc1OC [Compound 290]
–	7.49	–	COc1ccc(C2=NN(C(=O)c3cccc(Oc4ccccc4)c3)C(C)(C)C2)cc1OC [Compound 229, [3-(3,4-Dimethoxy-phenyl)-5,5-dimethyl-4,5-dihydro-pyrazol-1-yl]-(3-phenoxy-phenyl)-methanone]
5.96	–	–	COc1ccc(C2=NN(C(=O)c3cccc(F)c3)CC2)cc1S(=O)(=O)NCc1ccccc1 [Compound 214]

The remaining lines, values behind:

SMILES	pEC50 (FSHR)	pEC50 [1]	Assay B: value given in % (rat granulosa) ([1]; meaning of % not stated)
COc1ccc(C2=NN(C(=O)c3cccc(Cl)c3)CC2)cc1OC [Compound 62]	5.19	7.01	–
COc1ccc(C2=NN(C(=O)c3ccc(C)c(F)c3)CC2)cc1OC [Compound 136]	4.52	6.97	–
COc1ccc(C2=NN(C(=O)c3ccc4c(c3)OCO4)C(C)(C)C2)cc1OC [Compound 131, [1,3]Dioxol-5-yl-[3-(3,4-dimethoxy-phenyl)-5,5-dimethyl-4,5-dihydro-pyrazol-1-yl]-methanone]	4.64	6.38	–
Cc1cccc(C2=NN(C(=O)c3cccc(F)c3)CC2)c1 [Compound 179, (3-Fluoro-phenyl)-(3-m-tolyl-4,5-dihydro-pyrazol-1-yl)-methanone]	4.47	–	–
COc1ccc(C2=NN(C(=O)c3cccc(Oc4ccccc4)c3)CC2)cc1OC [Compound 70]	4.41	6.96	–
COc1ccc(C2=NN(C(=O)c3cccc(OC(C)(F)F)c3)CC2)cc1OC [Compound 67]	4.68	6.09	–
COc1ccc(C2=NN(C(=O)c3cccc(F)c3)CC2(C)C)cc1OC [Compound 149, [3-(3,4-Dimethoxy-phenyl)-4,4-dimethyl-4,5-dihydro-pyrazol-1-yl]-(3-fluoro-phenyl)-methanone]	6.42	–	–
COc1ccc(C2=NN(C(=O)c3ccc4c(c3)OCO4)CC2)cc1OC [Compound 3]	4.39	6.18	–
O=C(c1cccc(F)c1)N1CCC(c2ccc3c(c2)OCCO3)=N1 [Compound 189]	4.55	–	–
CSc1ccc(C2=NN(C(=O)c3cccc(F)c3)CC2)cc1 [Compound 204, (3-Fluoro-phenyl)-[3-(4-methylsulfanyl-phenyl)-4,5-dihydro-pyrazol-1-yl]methanone]	5.08	–	–
Cn1ccc2cc(C3=NN(C(=O)c4cccc(F)c4)CC3)ccc21 [Compound 185]	5.35	–	–
COc1ccc(C2=NN(C(=O)c3ccc(C(F)(F)F)c(F)c3)CC2)cc1OC [Compound 75]	5.24	–	–
CSc1ccc(C2=NN(C(=O)c3ccc4c(c3)OCO4)CC2)cc1 [Compound 205, Benzo[1,3]dioxol-5-yl-[3-(4-methylsulfanyl-phenyl)-4,5-dihydro-pyrazol-1-yl]-methanone]	4.52	–	–
O=C(c1cccc(F)c1)N1CCC(c2ccc(C(F)(F)F)cc2)=N1 [Compound 207]	4.35	–	–
CC(C)(C)Oc1ccc(C2=NN(C(=O)c3cccc(F)c3)CC2)cc1 [Compound 210]	5.13	–	–
O=C(c1ccc2c(c1)OCO2)N1CCC(c2ccc(OC(F)(F)F)cc2)=N1 [Compound 199, Benzo[1,3]dioxol-5-yl-[3-(4-trifluoromethoxy-phenyl)-4,5-dihydro-pyrazol-1-yl]methanone]	4.46	–	–
